From ChEMBL document CHEMBL5653626 (ChemMedChem, 2016)

How the values were obtained:
[1] = Stability in human liver microsomes assessed as maximum bioavailability; assay type: ADME, Microsome; details: read-out: Fmax
[2] = target: T1, Solute carrier family 2, facilitated glucose transporter member 1 (Homo sapiens, UniProt P11166); assay: (§1) Inhibition of human GLUT1 expressed in human DLD-1 cells assessed as reduction in glucose uptake by measuring decrease in ATP production incubated for 15 mins in presence of oxidative phosphorylation inhibitor rotenone by CellTiter-Glo Luminescent Cell Viability Assay; assay type: cell-based
T1 sequence (P11166 whole entry): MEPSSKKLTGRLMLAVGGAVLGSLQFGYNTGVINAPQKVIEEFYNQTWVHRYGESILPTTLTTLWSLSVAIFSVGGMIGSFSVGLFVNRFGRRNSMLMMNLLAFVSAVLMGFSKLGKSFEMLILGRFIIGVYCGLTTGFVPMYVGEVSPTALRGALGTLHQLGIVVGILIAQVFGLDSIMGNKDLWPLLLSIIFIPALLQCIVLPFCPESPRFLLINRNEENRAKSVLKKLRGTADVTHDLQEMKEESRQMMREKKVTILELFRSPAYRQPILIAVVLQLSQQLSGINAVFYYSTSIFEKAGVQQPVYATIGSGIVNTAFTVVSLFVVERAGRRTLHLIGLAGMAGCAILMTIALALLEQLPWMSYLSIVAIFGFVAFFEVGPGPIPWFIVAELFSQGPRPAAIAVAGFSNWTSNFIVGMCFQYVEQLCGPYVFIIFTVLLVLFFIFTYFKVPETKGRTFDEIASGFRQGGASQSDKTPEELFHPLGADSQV

[3] = Clearance in rat hepatocytes; assay type: ADME, cell-based, Hepatocyte
[4] = Stability in rat hepatocytes assessed as maximum bioavailability; assay type: ADME, Hepatocyte; details: read-out: Fmax
[5] = Clearance in human liver microsomes; assay type: ADME, Microsome
[6] = target: T2, Solute carrier family 2, facilitated glucose transporter member 3 (Homo sapiens, UniProt P11169); assay: Inhibition of human GLUT3 expressed in human GLUT1-/- DLD-1 cells assessed as reduction in glucose uptake by measuring decrease in ATP production incubated for 15 mins in presence of oxidative phosphorylation inhibitor rotenone by CellTiter-Glo Luminescent Cell Viability Assay; assay type: cell-based
T2 sequence (P11169 whole entry): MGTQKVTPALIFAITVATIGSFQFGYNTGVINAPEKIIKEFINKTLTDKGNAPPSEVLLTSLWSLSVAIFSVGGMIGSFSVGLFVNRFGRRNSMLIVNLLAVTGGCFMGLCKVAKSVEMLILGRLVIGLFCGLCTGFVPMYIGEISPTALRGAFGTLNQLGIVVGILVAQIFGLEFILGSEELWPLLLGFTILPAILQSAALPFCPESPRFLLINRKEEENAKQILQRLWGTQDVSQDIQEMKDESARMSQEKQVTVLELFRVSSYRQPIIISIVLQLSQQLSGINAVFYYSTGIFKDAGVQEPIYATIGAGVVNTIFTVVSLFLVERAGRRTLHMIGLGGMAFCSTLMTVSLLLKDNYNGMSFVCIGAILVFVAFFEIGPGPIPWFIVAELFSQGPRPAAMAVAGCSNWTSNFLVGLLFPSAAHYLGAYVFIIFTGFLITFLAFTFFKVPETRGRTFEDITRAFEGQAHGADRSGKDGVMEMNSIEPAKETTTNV

[7] = target: T3, Solute carrier family 2, facilitated glucose transporter member 4 (Homo sapiens, UniProt P14672); assay: as §1, with “GLUT4” for “GLUT1”, “CHO” for “human DLD-1”, “preincubated” for “incubated”, “for 20 mins followed by glucose addition and measured after” for “for”; assay type: cell-based
T3 sequence (P14672 whole entry): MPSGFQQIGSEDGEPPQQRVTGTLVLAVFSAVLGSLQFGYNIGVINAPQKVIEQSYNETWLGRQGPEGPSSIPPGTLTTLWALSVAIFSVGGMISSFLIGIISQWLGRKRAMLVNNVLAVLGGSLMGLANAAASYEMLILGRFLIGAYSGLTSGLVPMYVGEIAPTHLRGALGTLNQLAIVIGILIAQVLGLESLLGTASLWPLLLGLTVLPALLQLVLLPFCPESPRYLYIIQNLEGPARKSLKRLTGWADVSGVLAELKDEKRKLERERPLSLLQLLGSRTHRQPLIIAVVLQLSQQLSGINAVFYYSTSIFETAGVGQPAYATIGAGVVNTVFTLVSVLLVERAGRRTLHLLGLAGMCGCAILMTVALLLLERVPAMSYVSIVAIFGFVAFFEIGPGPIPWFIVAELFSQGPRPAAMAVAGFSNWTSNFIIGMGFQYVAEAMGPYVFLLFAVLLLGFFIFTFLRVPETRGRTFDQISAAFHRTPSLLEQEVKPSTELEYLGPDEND

[8] = Clearance in mouse liver microsomes; assay type: ADME, Microsome
[9] = Stability in mouse liver microsomes assessed as maximum bioavailability; assay type: ADME, Microsome; details: read-out: Fmax
[10] = target: T4, Solute carrier family 2, facilitated glucose transporter member 2 (Homo sapiens, UniProt P11168); assay: Inhibition of human GLUT2 expressed in CHO cells assessed as reduction in fructose uptake by measuring decrease in ATP production incubated for 15 mins in presence of oxidative phosphorylation inhibitor rotenone by CellTiter-Glo Luminescent Cell Viability Assay; assay type: cell-based
T4 sequence (P11168 whole entry): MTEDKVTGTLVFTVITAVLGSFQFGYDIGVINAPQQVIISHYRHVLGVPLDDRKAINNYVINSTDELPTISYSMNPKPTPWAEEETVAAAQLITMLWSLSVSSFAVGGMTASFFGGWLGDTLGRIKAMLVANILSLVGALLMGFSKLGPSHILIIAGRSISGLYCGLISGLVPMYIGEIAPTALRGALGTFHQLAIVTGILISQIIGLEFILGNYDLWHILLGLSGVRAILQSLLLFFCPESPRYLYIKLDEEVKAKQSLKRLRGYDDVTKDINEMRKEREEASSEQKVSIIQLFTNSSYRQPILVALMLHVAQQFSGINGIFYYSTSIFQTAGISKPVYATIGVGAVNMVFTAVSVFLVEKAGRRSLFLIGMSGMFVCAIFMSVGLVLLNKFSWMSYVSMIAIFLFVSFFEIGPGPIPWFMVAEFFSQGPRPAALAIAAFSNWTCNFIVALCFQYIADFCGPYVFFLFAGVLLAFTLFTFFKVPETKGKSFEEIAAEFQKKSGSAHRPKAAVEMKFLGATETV

SMILES | IC50 [2] | IC50 [7] | other results
Cc1c(NC(=O)c2cc(C(N)=O)nc3cc(F)ccc23)c(C(F)(F)F)nn1Cc1ncc(C#N)cn1 | 26 nM |  | Fh [1]: 83%; CLhep predicted [3]: 14.8 mL/min/kg; Fh [4]: 79%; CLhep predicted [5]: 3.67 mL/min/kg
Cc1c(NC(=O)c2cc(C(=O)N3CC(O)C3)nc3cc(F)ccc23)c(C(F)(F)F)nn1Cc1ccc(C#N)cc1 | 340 nM |  | 
Cc1c(NC(=O)c2cc(-c3ccc(F)cc3)nc3ccccc23)c(C(F)(F)F)nn1Cc1ccc(C#N)cc1 | 920 nM |  | 
Cc1c(NC(=O)c2cc(C(N)=O)nc3cc(F)cc(F)c23)c(C(F)(F)F)nn1Cc1ccc(C#N)cc1 | 1 nM | 16 nM | IC50 [6]: 470 nM
Cc1c(NC(=O)c2cc(C(N)=O)nc3cccc(F)c23)c(C(F)(F)F)nn1Cc1ccc(C#N)cc1 | 3 nM | 94 nM | IC50 [6]: 230 nM
Cc1nc(C)c(-c2cc(C(=O)Nc3c(C(F)(F)F)nn(Cc4ccc(C#N)cc4)c3C)c3ccccc3n2)s1 | 760 nM | 910 nM | 
Cc1c(NC(=O)c2cc(C(N)=O)nc3ncccc23)c(C(F)(F)F)nn1Cc1ccc(C#N)cc1 | 45 nM | 1000 nM | IC50 [6]: 300 nM
CCc1ccc(Cn2nc(C(F)(F)F)c(NC(=O)c3cc(C(N)=O)nc4cc(F)ccc34)c2C)cc1 |  |  | CLhep predicted [3]: 48.3 mL/min/kg; CLhep predicted [5]: 16.5 mL/min/kg
Cc1nn(Cc2ccc(C#N)cc2)c(C)c1NC(=O)c1cc(C(N)=O)nc2cc(F)ccc12 |  |  | CLhep predicted [3]: 16.7 mL/min/kg; CLhep predicted [8]: 11.2 mL/min/kg; CLhep predicted [5]: 7.5 mL/min/kg
Cc1c(NC(=O)c2cc(C(N)=O)nc3ccc(F)cc23)c(C(F)(F)F)nn1Cc1ccc(C#N)cc1 | 5 nM | 44 nM | IC50 [6]: 290 nM
Cc1c(NC(=O)c2cc(C(N)=O)nc3cc(F)ccc23)c(C(F)(F)F)nn1Cc1ccc(C(F)(F)F)cc1 | 9 nM | 910 nM | 
Cc1c(NC(=O)c2cc(C(N)=O)nc3cc(F)ccc23)c(C(F)(F)F)nn1Cc1cnc(C#N)cn1 | 5 nM | 16 nM | Fh [1]: 60%; CLhep predicted [3]: 20 mL/min/kg; Fh [4]: 72%; CLhep predicted [5]: 8.83 mL/min/kg
Cc1c(NC(=O)c2ccnc(C(N)=O)c2)c(C(F)(F)F)nn1Cc1ccc(C#N)cc1 | 200 nM |  | 
Cc1c(NC(=O)c2cc(C(N)=O)nc3scnc23)c(C(F)(F)F)nn1Cc1ccc(C#N)cc1 | 35 nM | 280 nM | 
Cc1c(NC(=O)c2cc(-c3cccnc3)nc3ccccc23)c(C(F)(F)F)nn1Cc1ccc(C#N)cc1 | 74 nM |  | 
Cc1nn(Cc2ccc(C#N)cc2)c(C)c1NC(=O)c1cc(C(F)(F)F)nc2ccc(Br)cc12 |  |  | CLhep predicted [8]: 56.7 mL/min/kg
COc1ccc2nc(C(N)=O)cc(C(=O)Nc3c(C(F)(F)F)nn(Cc4ccc(C#N)cc4)c3C)c2c1 |  | 13 nM | IC50 [6]: 110 nM
Cc1c(NC(=O)c2cc(C(N)=O)nc3cc(F)ccc23)c(C(F)(F)F)nn1Cc1ccccc1C#N | 3 nM | 88 nM | 
Cc1ccc2nc(C(N)=O)cc(C(=O)Nc3c(C(F)(F)F)nn(Cc4ccc(C#N)cc4)c3C)c2c1 |  | 120 nM | Fh [9]: 57%; CLhep predicted [3]: 33.3 mL/min/kg; Fh [4]: 53%; CLhep predicted [8]: 38.3 mL/min/kg
Cc1nn(Cc2ccc(F)cc2)c(C)c1N | 960 nM |  | 

SMILES | IC50 [2] | IC50 [7] | other results
Cc1nn(-c2ccc(F)cc2)c(C)c1NC(=O)c1cc(C(F)(F)F)nc2ccc(Br)cc12 | 470 nM |  | 
Cc1ccccc1Cn1nc(C(F)(F)F)c(NC(=O)c2cc(C(N)=O)nc3cc(F)ccc23)c1C | 7 nM |  | 
Cc1nn(Cc2ccc(C#N)cn2)c(C)c1NC(=O)c1cc(C(F)(F)F)nc2ccc(Br)cc12 | 2 nM |  | 
Cc1c(NC(=O)c2cc(C(=O)NCCN3CCOCC3)nc3cc(F)ccc23)c(C(F)(F)F)nn1Cc1ccc(C#N)cc1 | 340 nM |  | 
Cc1cccc(Cn2nc(C(F)(F)F)c(NC(=O)c3cc(C(N)=O)nc4cc(F)ccc34)c2C)c1 | 11 nM | 610 nM | 
Cc1c(NC(=O)c2cc(C(N)=O)nc3cc(F)ccc23)c(C(F)(F)F)nn1Cc1ccc(OC(F)(F)F)cc1 | 5 nM | 370 nM | 
Cc1cc(C)c2nc(-c3ccco3)cc(C(=O)Nc3c(C)nn(Cc4ccc(F)cc4)c3C)c2c1 |  |  | CLhep predicted [3]: 63.3 mL/min/kg
Cc1c(NC(=O)c2cc(C(N)=O)nc3cc(F)c(F)cc23)c(C(F)(F)F)nn1Cc1ccc(C#N)cc1 | 2 nM | 180 nM | 
Cc1nn(Cc2ccc(C#N)cc2F)c(C)c1NC(=O)c1cc(C(F)(F)F)nc2ccc(Br)cc12 | 8 nM | 870 nM | 
Cc1nn(CCc2ccc(F)cc2)c(C)c1NC(=O)c1cc(C(F)(F)F)nc2ccc(Br)cc12 |  | 340 nM | 
Cc1nn(CC2CCOCC2)c(C)c1NC(=O)c1cc(C(F)(F)F)nc2ccc(Br)cc12 |  |  | IC50 [10]: 8500 nM
Cc1c(NC(=O)c2cc(C(N)=O)nc3cc(F)ccc23)c(C(F)(F)F)nn1Cc1cccc(C#N)c1 |  | 950 nM | 
Cc1c(NC(=O)c2cc(-c3ncnn3C)nc3ccccc23)c(C(F)(F)F)nn1Cc1ccc(C#N)cc1 |  |  | CLhep predicted [3]: 31.7 mL/min/kg; CLhep predicted [8]: 35 mL/min/kg
Cc1nn(Cc2ccc(F)cc2)c(C)c1NC(=O)c1cc(C(F)(F)F)nc2ccc(Br)cc12 |  |  | CLhep predicted [3]: 48.3 mL/min/kg; CLhep predicted [8]: 75 mL/min/kg
Cc1c(NC(=O)c2cc(C(N)=O)nc3cnccc23)c(C(F)(F)F)nn1Cc1ccc(C#N)cc1 | 10 nM | 61 nM | 
Cc1ccc2nc(C)cc(C(=O)Nc3c(C)nn(Cc4ccc(F)cc4)c3C)c2c1 |  |  | Fh [1]: 11%; Fh [9]: 25%; CLhep predicted [3]: 61.7 mL/min/kg; CLhep predicted [5]: 20 mL/min/kg
Cc1cccc2nc(C(N)=O)cc(C(=O)Nc3c(C(F)(F)F)nn(Cc4ccc(C#N)cc4)c3C)c12 | 18 nM | 17 nM | IC50 [6]: 86 nM
Cc1c(NC(=O)c2cc(C(N)=O)nc3cc(F)ccc23)c(C(C)C)nn1Cc1ccc(C#N)cc1 | 7 nM |  | Fh [1]: 34%; CLhep predicted [5]: 14.5 mL/min/kg
Cc1c(NC(=O)c2cc(C(N)=O)nc3cc(F)ccc23)c(C(F)(F)F)nn1Cc1ccc(C(C)(C)C)cc1 [BAY-588] |  | 500 nM | IC50 [10]: > 10000 nM
C=C1[C@@H](C)[C@H]2[C@H](Cc3ccccc3)NC(=O)[C@]23OC(=O)/C=C/[C@H](O)CCC[C@@H](C)C/C=C/[C@H]3[C@@H]1O [CYTOCHALASIN B] |  |  | IC50 [10]: 2800 nM
